Assays:
[1] = tested on: APPfl, CTFβ, BACE, PS1; test: Western blot of APP processing, APP/PS1 mice; assay type: in vivo; conditions: cortex and hippocampus, AP5-treated vs APP/PS1 mice
Procedure: (§1) APP/PS1 mice of ages 6 months were randomly divided into vehicle (APP/PS1, n = 10) and treatment groups (AP5, n = 10), which were intragastrically administered with AP5 (40 mg/kg) once daily for consecutive 5 months. AP5 was dissolved in distilled water containing 1% sodium carboxymethyl cellulose.
Frozen hippocampus and cortex were homogenized in pre-cooling RIPA buffer (P0013B, Beyotime) supplemented with 1 mM phenylmethanesulfonyl fluoride (PMSF) and cocktail of protease and phosphatase inhibitors. […] The membranes were incubated with 5% fat-free milk blocking solution for 1 h at room temperature and then probed with primary antibodies overnight at 4°C. […] Densitometric analysis was performed using Quantity One software (Bio-Rad, Berkeley, CA, United States). […]
(§2) (1:100, BAF2655, R&D, Minneapolis, MN, USA). […] For the quantification of Aβ plaque-associated microglia and astrocyte, Iba1- and GFAP-immunopositive cells around plaques were counted. On each slide, ten plaques were randomly determined and the microglia (nuclei) in the immediate vicinity (two times the plaque diameter) of each plaque were counted. For colocalization of PSD95 and synaptophysin, images were analyzed with the puncta analyzer plugin with a minimum pixel specification of 4 in Image Jand thresholding was consistent for every image. […]

[2] = tested on: synaptophysin, PSD95; test: Synaptophysin and PSD95 co-immunofluorescence and western blot, hippocampus; assay type: in vivo, APP/PS1 mice
Procedure: as §1
(§3) The fixed hemibrains were paraffin-embedded and sectioned in the coronal plane. The slices were deparaffinized with xylene and rehydrated by a series of gradient alcohols. Antigen retrieval through microwave boiling was performed with 10 mM sodium citrate solution at pH 6.0. The slices were cooled down to room temperature and then rinsed in PBS solution. […]
Frozen hippocampus and cortex were homogenized in pre-cooling RIPA buffer (P0013B, Beyotime) supplemented with 1 mM phenylmethanesulfonyl fluoride (PMSF) and cocktail of protease and phosphatase inhibitors. […] Densitometric analysis was performed using Quantity One software (Bio-Rad, Berkeley, CA, United States).
(§4) Briefly, for ACh assay, the reactions were started by adding 100 µL of the Amplex Red reagent, HRP, choline oxidase, AChE working solution to each microplate well containing the controls and samples. […] Assay plates were incubated at room temperature for 30 min and protected from light, followed by detecting fluorescence of resorufin (λex = 544 nm, λem = 590 nm) in a fluorescence microplate reader. […]

[3] = tested on: NeuN, MAP2; test: NeuN and MAP2 co-immunostaining and western blot, hippocampus; assay type: in vivo, APP/PS1 mice
Procedure: as §1
The fixed hemibrains were paraffin-embedded and sectioned in the coronal plane. The slices were deparaffinized with xylene and rehydrated by a series of gradient alcohols. Antigen retrieval through microwave boiling was performed with 10 mM sodium citrate solution at pH 6.0. The slices were cooled down to room temperature and then rinsed in PBS solution. Then the slices were incubated in 10% goat serum blocking solution for 1 h followed by primary antibodies overnight at 4°C. The next day, the slides were labeled with biotinylated or fluorescent secondary antibodies. Slices were washed three times with PBS before being mounted. Images were captured using a SpinSR10 scanner (Olympus, Tokyo, Japan).
Frozen hippocampus and cortex were homogenized in pre-cooling RIPA buffer (P0013B, Beyotime) supplemented with 1 mM phenylmethanesulfonyl fluoride (PMSF) and cocktail of protease and phosphatase inhibitors. […] The membranes were incubated with 5% fat-free milk blocking solution for 1 h at room temperature and then probed with primary antibodies overnight at 4°C. […] Densitometric analysis was performed using Quantity One software (Bio-Rad, Berkeley, CA, United States).
as §4
(1:100, BAF2655, R&D, Minneapolis, MN, USA). […] For the quantification of Aβ plaque-associated microglia and […]

[4] = tested on: Aβ plaque-associated microglia and astrocytes; test: Plaque-associated microglia and astrocytes (MOAB-2 with Iba1 or GFAP co-staining); assay type: in vivo, APP/PS1 mice
Procedure: as §1, §3, §2
anti-synaptophysin (1:1000, 67864-1-lg, Proteintech) overnight at 4°C. […] Densitometric analysis was performed using Quantity One software (Bio-Rad, Berkeley, CA, USA). […]

[5] = hippocampal CA1 pyramidal layer

Compound: CCN(C)C(=O)Oc1cccc(/C=C2\Cc3cc(OC)c(OC)cc3C2=O)c1 [AP5, (E)-3-((5,6-dimethoxy-1-oxo-1,3-dihydro-2H-inden-2-ylidene)-methyl)phenylethyl(methyl)carbamate]
- expression levels of APPfl, CTFβ, BACE and presenilin 1 [1]: no significant changes
- pre-, post- and double-positive synaptic puncta (synapse damage) ([2]; synaptophysin and PSD95 co-immunofluorescence, hippocampus CA3): markedly recovered
- expression levels of synaptophysin and PSD95 ([2]; western blot, hippocampus): more than that in the APP/PS1 mice
- MAP2 signals [3, 5]: restored
- average number of NeuN+ cells [3, 5]: restored
- protein expression of NeuN and MAP2 ([3]; western blot, hippocampus): markedly increased
- number of astrocytes around Aβ plaque ([4]; MOAB-2 and GFAP co-staining): no statistical difference
- plaque-associated microglia ([4]; MOAB-2 and Iba1 co-staining): increased clustering of microglia surrounding a plaque

From article PMC9289467, “A Novel Multifunctional 5,6-Dimethoxy-Indanone-Chalcone-Carbamate Hybrids Alleviates Cognitive Decline in Alzheimer’s Disease by Dual Inhibition of Acetylcholinesterase and Inflammation” (Frontiers in Aging Neuroscience, 2022)
